{"source": "the Kinase Knowledgebase extract (Sharma et al. 2016)", "key": {"EGFR [1]": {"biological_target": "EGFR (UniProt P00533)", "sequence (P00533 whole entry, looked up)": "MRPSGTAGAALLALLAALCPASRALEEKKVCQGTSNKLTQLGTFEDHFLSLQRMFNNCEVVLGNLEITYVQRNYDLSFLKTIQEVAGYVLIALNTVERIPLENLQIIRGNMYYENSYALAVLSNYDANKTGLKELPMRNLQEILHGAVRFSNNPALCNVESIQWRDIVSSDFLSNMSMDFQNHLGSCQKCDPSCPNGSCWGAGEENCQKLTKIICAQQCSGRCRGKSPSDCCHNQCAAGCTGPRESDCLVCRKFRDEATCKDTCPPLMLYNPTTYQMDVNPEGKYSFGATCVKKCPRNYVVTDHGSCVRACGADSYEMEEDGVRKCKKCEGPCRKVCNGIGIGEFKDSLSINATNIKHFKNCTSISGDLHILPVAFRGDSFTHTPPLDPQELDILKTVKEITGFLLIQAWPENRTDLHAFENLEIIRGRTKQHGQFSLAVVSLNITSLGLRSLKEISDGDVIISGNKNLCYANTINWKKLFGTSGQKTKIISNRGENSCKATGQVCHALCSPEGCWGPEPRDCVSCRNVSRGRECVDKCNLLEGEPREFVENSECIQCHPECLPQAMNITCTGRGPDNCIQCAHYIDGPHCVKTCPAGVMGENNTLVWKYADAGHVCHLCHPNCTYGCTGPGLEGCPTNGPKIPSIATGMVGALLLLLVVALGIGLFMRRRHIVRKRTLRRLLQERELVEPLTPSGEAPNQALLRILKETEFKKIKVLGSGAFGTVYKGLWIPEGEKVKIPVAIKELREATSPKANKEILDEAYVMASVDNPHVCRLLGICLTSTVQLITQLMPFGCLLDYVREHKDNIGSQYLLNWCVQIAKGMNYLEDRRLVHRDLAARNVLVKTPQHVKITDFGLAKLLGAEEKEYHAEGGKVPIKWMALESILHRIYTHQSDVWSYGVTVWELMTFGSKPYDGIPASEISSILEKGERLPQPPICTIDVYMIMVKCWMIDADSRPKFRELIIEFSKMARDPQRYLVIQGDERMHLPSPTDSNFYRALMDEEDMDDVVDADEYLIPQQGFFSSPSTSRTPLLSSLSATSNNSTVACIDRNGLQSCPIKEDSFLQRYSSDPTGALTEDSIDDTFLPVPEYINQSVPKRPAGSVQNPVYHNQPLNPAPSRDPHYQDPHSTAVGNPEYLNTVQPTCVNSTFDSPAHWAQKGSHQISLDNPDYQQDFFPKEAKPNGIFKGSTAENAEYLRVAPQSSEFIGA"}, "[2]": {"system": "MAPK14, Q16539 [p38 (T106M) Inhibition]", "test": "p38 (T106M) Inhibition"}, "EGFR [3]": {"biological_target": "EGFR (UniProt P00533)", "remark": "listed apart in the source"}, "EGFR [4]": {"biological_target": "EGFR (UniProt P00533)", "remark": "listed apart in the source"}, "MAPK14 [5]": {"biological_target": "MAPK14 (UniProt Q16539)", "sequence (Q16539 whole entry, looked up)": "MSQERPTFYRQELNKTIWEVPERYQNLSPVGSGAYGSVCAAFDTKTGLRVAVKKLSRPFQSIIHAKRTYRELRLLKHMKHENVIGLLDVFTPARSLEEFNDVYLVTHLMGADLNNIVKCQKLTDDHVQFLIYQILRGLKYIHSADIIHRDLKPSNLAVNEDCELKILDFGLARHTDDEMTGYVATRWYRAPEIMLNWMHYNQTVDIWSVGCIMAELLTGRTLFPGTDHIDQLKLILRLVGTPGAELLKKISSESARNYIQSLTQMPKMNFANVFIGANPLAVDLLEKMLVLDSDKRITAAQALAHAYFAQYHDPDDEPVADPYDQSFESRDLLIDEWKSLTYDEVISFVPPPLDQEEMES", "test": "MAPK14 Binding Inhibition"}, "MAPK14 (murine) [6]": {"system": "MAPK14 (murine)", "test": "p38 Kinase Inhibition (ATF-2 / L1210/VCR Cells)", "details": "dose or concentration not given here"}, "MAPK14 (murine) [7]": {"system": "MAPK14 (murine)", "test": "p38 Kinase Inhibition (MAPKAPK2 / L1210/VCR Cells)", "details": "dose or concentration not given here"}, "EGFR (human) [8]": {"biological_target": "EGFR (human) (UniProt P00533)", "sequence (P00533 whole entry, looked up)": "as the sequence (P00533 whole entry, looked up) above", "details": "mda-mb-468"}, "EGFR [9]": {"biological_target": "EGFR (UniProt P00533)", "remark": "listed apart in the source"}, "EGFR (murine)": {"biological_target": "EGFR (murine) (UniProt P00533)", "sequence (P00533 whole entry, looked up)": "as above", "details": "balb/mk cells"}, "EGFR (human) [10]": {"biological_target": "EGFR (human) (UniProt P00533)", "details": "A431"}, "MAPK14 [11]": {"biological_target": "MAPK14 (UniProt Q16539)", "test": "Inhibition of MAPK Activity"}, "EGFR [12]": {"biological_target": "EGFR (UniProt P00533)", "remark": "listed apart in the source"}, "MAPK14 (human) [13]": {"biological_target": "MAPK14 (human) (UniProt Q16539)", "sequence (Q16539 whole entry, looked up)": "as the sequence (Q16539 whole entry, looked up) above", "test": "Activation of p38 in Human Platelets"}, "PIK3CA": {"biological_target": "PIK3CA (UniProt P42336)", "sequence (P42336 whole entry, looked up)": "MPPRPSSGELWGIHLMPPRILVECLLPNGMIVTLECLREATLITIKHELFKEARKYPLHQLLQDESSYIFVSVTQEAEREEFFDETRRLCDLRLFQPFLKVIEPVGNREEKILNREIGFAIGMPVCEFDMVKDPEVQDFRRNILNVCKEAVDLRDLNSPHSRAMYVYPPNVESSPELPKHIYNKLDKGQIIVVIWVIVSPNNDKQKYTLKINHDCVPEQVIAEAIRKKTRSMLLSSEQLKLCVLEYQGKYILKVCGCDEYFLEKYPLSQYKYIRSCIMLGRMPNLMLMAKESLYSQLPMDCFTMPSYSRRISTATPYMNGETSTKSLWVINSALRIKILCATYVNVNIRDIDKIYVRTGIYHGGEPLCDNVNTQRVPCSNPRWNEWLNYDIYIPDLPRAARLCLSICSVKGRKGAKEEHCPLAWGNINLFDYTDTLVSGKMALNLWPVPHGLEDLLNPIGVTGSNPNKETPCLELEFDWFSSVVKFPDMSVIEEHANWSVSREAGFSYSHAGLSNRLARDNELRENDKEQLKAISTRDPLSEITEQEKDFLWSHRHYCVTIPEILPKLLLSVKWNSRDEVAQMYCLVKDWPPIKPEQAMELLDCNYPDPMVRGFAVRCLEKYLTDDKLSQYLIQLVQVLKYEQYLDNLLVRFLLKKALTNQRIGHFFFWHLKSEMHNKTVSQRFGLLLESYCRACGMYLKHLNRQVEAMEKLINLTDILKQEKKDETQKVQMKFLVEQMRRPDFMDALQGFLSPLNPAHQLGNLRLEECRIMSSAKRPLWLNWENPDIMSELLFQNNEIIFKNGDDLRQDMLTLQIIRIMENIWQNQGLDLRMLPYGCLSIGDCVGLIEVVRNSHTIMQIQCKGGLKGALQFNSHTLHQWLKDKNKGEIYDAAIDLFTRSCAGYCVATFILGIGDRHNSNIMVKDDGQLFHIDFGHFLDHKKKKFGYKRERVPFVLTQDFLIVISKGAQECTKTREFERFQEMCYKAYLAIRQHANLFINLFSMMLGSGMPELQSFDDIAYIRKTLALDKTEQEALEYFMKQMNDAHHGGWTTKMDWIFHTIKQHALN"}, "EGFR [14]": {"biological_target": "EGFR (UniProt P00533)", "remark": "listed apart in the source"}, "[15]": {"system": "CDK2 (sprague-dawley rat)", "details": "dose or concentration not given here"}, "MAPK14 (human) [16]": {"biological_target": "MAPK14 (human) (UniProt Q16539)", "test": "MAPK14 Kinase Inhibition"}, "MAPK14 (human) [17]": {"biological_target": "MAPK14 (human) (UniProt Q16539)", "test": "TNFalpha Inhibition", "details": "pbmc"}, "EGFR [18]": {"biological_target": "EGFR (UniProt P00533)", "remark": "listed apart in the source"}, "MAPK14 (human) [19]": {"biological_target": "MAPK14 (human) (UniProt Q16539)", "test": "MIP-1 alpha Assay (T cells)"}, "MAPK14 (human) [20]": {"biological_target": "MAPK14 (human) (UniProt Q16539)", "test": "MIP-1 Beta Assay (T cells)"}, "MAPK14 (murine) [21]": {"system": "MAPK14 (murine)", "test": "TNF-alpha Inhibition (In vivo Studies)"}, "MAPK14 (human) [22]": {"biological_target": "MAPK14 (human) (UniProt Q16539)", "test": "TNF-alpha Inhibition (PBMC)"}, "MAPK14 (human) [23]": {"biological_target": "MAPK14 (human) (UniProt Q16539)", "test": "TNF-alpha Inhibition (Human Whole Blood)", "details": "blood cells"}, "EGFR [24]": {"biological_target": "EGFR (UniProt P00533)", "remark": "listed apart in the source"}, "EGFR (human) [25]": {"biological_target": "EGFR (human) (UniProt P00533)", "details": "hs-27"}, "[26]": {"system": "MAPK14 (sprague-dawley rat)", "test": "p38 Activation", "details": "myocytes"}, "EGFR (human) [27]": {"biological_target": "EGFR (human) (UniProt P00533)", "details": "mda-mb-468", "remark": "listed apart in the source"}, "CDK2": {"biological_target": "CDK2 (UniProt P24941)"}, "MAPK14 (human) [28]": {"biological_target": "MAPK14 (human) (UniProt Q16539)", "test": "IL-6 Inhibition", "details": "hiv-1"}, "EGFR [29]": {"biological_target": "EGFR (UniProt P00533)", "remark": "listed apart in the source"}, "EGFR (human) [30]": {"biological_target": "EGFR (human) (UniProt P00533)"}, "EGFR (human) [31]": {"biological_target": "EGFR (human) (UniProt P00533)", "details": "lox-imvi,malme-3m,sk-mel-5"}, "EGFR (human) [32]": {"biological_target": "EGFR (human) (UniProt P00533)", "remark": "listed apart in the source"}, "EGFR (human) [33]": {"biological_target": "EGFR (human) (UniProt P00533)", "details": "ovcar-8,sk-ov-3,ovcar-5,ovcar-4"}, "EGFR (human) [34]": {"biological_target": "EGFR (human) (UniProt P00533)", "details": "a431"}}, "note": "Values joined by “and” are separate entries in the source; they are usually repeats but may differ in a detail not shown here. Identical values can stand only once."}
{"smiles": "C[C@@]12CCC(=O)c3coc(c31)C(=O)c1cc3c(cc12)C(=O)C=CC3=O", "values": [{"measurement": "IC50", "setting": "EGFR [1]", "value": 19000, "unit": "nM"}]}
{"smiles": "Fc1ccc(-c2ncn(C3CCNCC3)c2-c2ccncc2)cc1", "values": [{"measurement": "inhibition", "setting": "[2]", "value": 0, "unit": "%"}]}
{"smiles": "c1ccc2c(c1)CCc1c-2n[nH]c1-c1ccncc1", "values": [{"measurement": "IC50", "setting": "EGFR [3]", "value": "> 50000", "unit": "nM"}, {"measurement": "IC50", "setting": "EGFR [4]", "value": "> 50000", "unit": "nM"}]}
{"smiles": "COc1cc(-c2c(-c3ccc(F)cc3)ncn2C2CCNCC2)ccn1", "values": [{"measurement": "IC50", "setting": "MAPK14 [5]", "value": "< 50000", "unit": "nM"}]}
{"smiles": "CC[C@]1(O)C[C@@H]2CN(CCc3c([nH]c4ccccc34)[C@@](C(=O)OC)(c3cc4c(cc3OC)N(C=O)[C@H]3[C@@](O)(C(=O)OC)[C@H](OC(C)=O)[C@]5(CC)C=CCN6CC[C@]43C65)C2)C1", "note": "(some centres not stated)", "values": [{"measurement": "activity", "setting": "MAPK14 (murine) [6]", "value": 53.3, "unit": "%"}, {"measurement": "activity", "setting": "MAPK14 (murine) [7]", "value": 120, "unit": "%"}]}
{"smiles": "O=C(Nc1cc(-c2ccccc2)n[nH]1)c1ccccc1", "values": [{"measurement": "IC50", "setting": "EGFR (human) [8]", "value": "> 30000", "unit": "nM"}]}
{"smiles": "COc1cc(Nc2ccnc(Nc3ccc(COc4ccccc4)cc3)n2)cc(OC)c1OC", "values": [{"measurement": "IC50", "setting": "EGFR [9]", "value": "≥ 10000", "unit": "nM"}]}
{"smiles": "Cc1ccc(NC(=O)c2ccc(CN3CCN(C)CC3)cc2)cc1Nc1nccc(-c2cccnc2)n1", "values": [{"measurement": "IC50", "setting": "EGFR (murine)", "value": 12700, "unit": "nM"}]}
{"smiles": "N#C/C(=C\\c1ccc2c(c1)OCO2)c1ccccn1", "values": [{"measurement": "IC50", "setting": "EGFR (human) [10]", "value": 1000, "unit": "nM"}]}
{"smiles": "COC(=O)[C@@]1(Cc2ccc(O)c(CC=C(C)C)c2)OC(=O)C(O)=C1c1ccc(O)cc1", "values": [{"measurement": "IC50", "setting": "MAPK14 [11]", "value": 94000, "unit": "nM"}, {"measurement": "IC50", "setting": "EGFR [12]", "value": "> 590000", "unit": "nM"}]}
{"smiles": "CCCCC/C=C\\C/C=C\\C/C=C\\C/C=C\\CCCC(=O)O", "values": [{"measurement": "phosphorylation", "setting": "MAPK14 (human) [13]", "value": "254 cpm and 231 cpm"}]}
{"smiles": "O=c1c(O)c(-c2ccc(O)c(O)c2)oc2cc(O)cc(O)c12", "values": [{"measurement": "IC50", "setting": "PIK3CA", "value": 3800, "unit": "nM"}]}
{"smiles": "N#CC(=Cc1cccnc1)c1cc(Cl)cc(Cl)c1", "values": [{"measurement": "IC50", "setting": "EGFR [14]", "value": 100, "unit": "nM"}]}
{"smiles": "CN1CC[C@@H](c2c(O)cc(O)c3c(=O)cc(-c4ccccc4Cl)oc23)[C@@H](O)C1", "values": [{"measurement": "response", "setting": "[15]", "value": 4.2, "unit": "%"}]}
{"smiles": "CN(C)CCCN(C)c1ccc2ncn(-c3cccc(NC(=O)c4ccnc(N5CCOCC5)c4)c3)c(=O)c2c1", "values": [{"measurement": "IC50", "setting": "MAPK14 (human) [16]", "value": 50, "unit": "nM"}, {"measurement": "IC50", "setting": "MAPK14 (human) [17]", "value": 5000, "unit": "nM"}]}
{"smiles": "COc1cc(O)c2c(=O)c(-c3cccc(Cl)c3)cn(CC(N)=O)c2c1", "values": [{"measurement": "IC50", "setting": "EGFR [18]", "value": 23, "unit": "nM"}]}
{"smiles": "CC(=NNC(=N)N)c1cc(NC(=O)CCCCCCCCC(=O)Nc2cc(C(C)=NNC(=N)N)cc(C(C)=NNC(=N)N)c2)cc(C(C)=NNC(=N)N)c1", "values": [{"measurement": "expression", "setting": "MAPK14 (human) [19]", "value": "10500 pg/mL and 5700 pg/mL"}, {"measurement": "expression", "setting": "MAPK14 (human) [20]", "value": "3800 pg/mL and 10400 pg/mL"}]}
{"smiles": "Cc1nccc(-c2c(-c3ccc(F)cc3)ncn2C2CCCCC2)n1", "values": [{"measurement": "ED50", "setting": "MAPK14 (murine) [21]", "value": 7.5, "unit": "mg/kg"}]}
{"smiles": "C[C@H](Nc1nccc(-c2cc(N3CCOCC3)nnc2-c2cccc(C(F)(F)F)c2)n1)c1ccccc1", "values": [{"measurement": "IC50", "setting": "MAPK14 (human) [22]", "value": 292, "unit": "nM"}, {"measurement": "IC50", "setting": "MAPK14 (human) [23]", "value": 1200, "unit": "nM"}]}
{"smiles": "O=C(Nc1cc2ccccc2cn1)c1ccccc1NCc1ccncc1", "values": [{"measurement": "IC50", "setting": "EGFR [24]", "value": "> 10000", "unit": "nM"}]}
{"smiles": "C=CC(=O)Nc1ccc2c(Nc3cccc(Br)c3)ncnc2c1", "values": [{"measurement": "IC50", "setting": "EGFR (human) [25]", "value": 6.4, "unit": "nM"}]}
{"smiles": "COc1ccc(C[C@H]2NC[C@H](O)[C@H]2OC(C)=O)cc1", "values": [{"measurement": "activation", "setting": "[26]", "value": 6.2}]}
{"smiles": "C=C1CC(C)OC(=O)c2c(O)cc(OC)cc2C(=C)C(=C)CC(O)C(O)C(=O)C1=C", "note": "(configuration not stated)", "values": [{"measurement": "IC50", "setting": "EGFR (human) [27]", "value": "> 30000", "unit": "nM"}]}
{"smiles": "CC(C)=CCNc1ncnc2[nH]cnc12", "values": [{"measurement": "IC50", "setting": "CDK2", "value": 50000, "unit": "nM"}]}
{"smiles": "Cn1c2ccccc2c2c3c(c4c5ccccc5n(CCC#N)c4c21)CNC3=O", "values": [{"measurement": "IC50", "setting": "MAPK14 (human) [28]", "value": "< 25", "unit": "nM"}]}
{"smiles": "C/C=C/C(=O)Nc1ccc2c(Nc3cccc(Br)c3)ncnc2c1", "values": [{"measurement": "IC50", "setting": "EGFR [29]", "value": 0.68, "unit": "nM"}]}
{"smiles": "CNc1cc2ncnc(Nc3cccc(Br)c3)c2cc1N", "values": [{"measurement": "IC50", "setting": "EGFR (human) [30]", "value": "1000 to 4360", "unit": "nM"}, {"measurement": "IC50", "setting": "EGFR (human) [31]", "value": "1000 to 10000", "unit": "nM"}, {"measurement": "IC50", "setting": "EGFR (human) [32]", "value": "0.57 to 1.9", "unit": "nM"}, {"measurement": "IC50", "setting": "EGFR (human) [33]", "value": "8.32 to 6920", "unit": "nM"}, {"measurement": "IC50", "setting": "EGFR (human) [34]", "value": "39.8 to 1580", "unit": "nM"}]}
